Source: US6552021B2, “Pharmaceutical compounds” (Xenova Limited, priority 2000, dated 2003)
Like-named read-outs stand apart in the source and are kept apart here.

Key:
[1] = system: H69/LX4 human small cell lung carcinoma cell line which overexpresses P-glycoprotein (Pgp); assay: Cytotoxicity in drug resistant H69/LX4 cells (AlamarBlue); settings: for Rf (resistance factor): IC50 in H69/LX4 divided by IC50 in H69/P
Method: (§1) The cytotoxicity of compounds of formula (I) was measured using the H69 parental (H69/P) human small cell lung carcinoma cell line and the drug resistant human small cell lung carcinoma cell line H69/LX4 which overexpresses P-glycoprotein (Pgp).
(§2) H69/P and H69/LX4 cells were pipetted into 96-well tissue culture plates and then allowed to incubate at 37° C. for 4 h. A range of concentrations from 0.01 nM to 5 μM of compounds of formula (I) or the standards TAS-103, Doxorubicin and Topotecan were then added. The plates were incubated for 5-6 days before adding AlamarBlue to each well and returning the plates to the incubator for 5-8 h to allow colour development. The cell numbers in the plates at the end of this period were directly proportional to the absorbance measured at a wavelength of 570 nm (reference wavelength 600 nm).

[2] = system: COR-L23 parental (COR-L23/P) human non-small cell lung carcinoma cell line; assay: Cytotoxicity in COR-L23 parental cells (SRB assay); type: cell-based
Method: The cytotoxicity of the compounds described herein was also measured using the COR-L23 parental (COR-L23/P) human non-small cell lung carcinoma cell line and also the drug resistant human non-small cell lung carcinoma cell line COR-L23/R which overexpresses multidrug resistance associated protein (MRP). The cytotoxicity, as measured by the IC50 (concentration required to give 50% cell kill) in the L23/R cell line divided by the cytotoxicity in the L23/P cell line gives an indication of the degree to which a compound may be affected by MRP-dependant MDR and is termed the resistance factor (Rf) of the compound.
(§3) L23/P and L23/R cells were pipetted into 96-well tissue culture plates and then allowed to incubate at 37° C. for 4 h. A range of concentrations from 0.01 nM to 5 μM of compounds of formula (I) or the standards TAS-103, Doxorubicin and Topotecan were then added. The plates were incubated for 5-6 days before proliferation was assessed using the sulphurhodamine B (SRB) assay as described by Skehan et al, J Natl Cancer Inst 1990, 82, pp1107-1112.

[3] = Cytotoxicity in drug resistant COR-L23/R cells (SRB assay); type: cell-based, human; settings: Homo sapiens, COR-L23/R; L23/R cells (MRP overexpressing), 5-6 days incubation, SRB
Method: (§4) The cytotoxicity of the compounds described herein was also measured using the COR-L23 parental (COR-L23/P) human non-small cell lung carcinoma cell line and also the drug resistant human non-small cell lung carcinoma cell line COR-L23/R which overexpresses multidrug resistance associated protein (MRP).
as §3

[4] = system: COR-L23/R human non-small cell lung carcinoma cell line which overexpresses multidrug resistance associated protein (MRP); assay: as above; type: cell-based; settings: for Rf (resistance factor): IC50 in L23/R divided by IC50 in L23/P; for IC50: L23/R cells (MRP overexpressing), 5-6 days incubation, SRB
Method: as §4, §3

[5] = system: Jurkat human leukaemia cell line (JLC); assay: Cytotoxicity in Jurkat cells (JLC); type: cell-based
Method: (§5) The cytotoxicity of the compounds described herein was also measured using the Jurkat human leukaemia cell line (JLC) and also the amsacrine-resistant Jurkat human leukaemia cell line (JLA) and the doxorubicin-resistant Jurkat human leukaemia cell line (JLD). The cytotoxicity, as measured by the IC50 (concentration required to give 50% cell kill) in the JLA or JLD cell line divided by the cytotoxicity in the JLC cell line gives an indication of the degree to which a compound may be affected by atypical drug resistance and is termed the resistance factor (Rf) of the compound. The method used has been described previously (Finlay et al, Eur J. Cancer 32A, 708-714, 1996). Compounds were active in the range 1 nM to 5 μM.

[6] = system: amsacrine-resistant Jurkat human leukaemia cell line (JLA); assay: Cytotoxicity in amsacrine-resistant Jurkat cells (JLA); type: cell-based; settings: for IC50: JLA cells (amsacrine-resistant); for Rf(JLA/JLC): IC50 in JLA divided by IC50 in JLC
Method: as §5

[7] = system: doxorubicin-resistant Jurkat human leukaemia cell line (JLD); assay: Cytotoxicity in doxorubicin-resistant Jurkat cells (JLD); type: cell-based; settings: for IC50: JLD cells (doxorubicin-resistant); for Rf(JLD/JLC): IC50 in JLD divided by IC50 in JLC
Method: as §5

[8] = system: H69 parental (H69/P) human small cell lung carcinoma cell line; assay: Cytotoxicity in H69 parental cells (AlamarBlue); type: cell-based; settings: 5-6 days incubation, concentration required to give 50% cell kill
Method: as §1, §2

topoisomerase I = target: T1, topoisomerase I (Homo sapiens, UniProt P11387); assay: Stabilization of cleavable complexes with topoisomerase I; type: biochemical; settings: range where an increase in cleavable complexes was observed relative to controls
T1 sequence (P11387 1-765): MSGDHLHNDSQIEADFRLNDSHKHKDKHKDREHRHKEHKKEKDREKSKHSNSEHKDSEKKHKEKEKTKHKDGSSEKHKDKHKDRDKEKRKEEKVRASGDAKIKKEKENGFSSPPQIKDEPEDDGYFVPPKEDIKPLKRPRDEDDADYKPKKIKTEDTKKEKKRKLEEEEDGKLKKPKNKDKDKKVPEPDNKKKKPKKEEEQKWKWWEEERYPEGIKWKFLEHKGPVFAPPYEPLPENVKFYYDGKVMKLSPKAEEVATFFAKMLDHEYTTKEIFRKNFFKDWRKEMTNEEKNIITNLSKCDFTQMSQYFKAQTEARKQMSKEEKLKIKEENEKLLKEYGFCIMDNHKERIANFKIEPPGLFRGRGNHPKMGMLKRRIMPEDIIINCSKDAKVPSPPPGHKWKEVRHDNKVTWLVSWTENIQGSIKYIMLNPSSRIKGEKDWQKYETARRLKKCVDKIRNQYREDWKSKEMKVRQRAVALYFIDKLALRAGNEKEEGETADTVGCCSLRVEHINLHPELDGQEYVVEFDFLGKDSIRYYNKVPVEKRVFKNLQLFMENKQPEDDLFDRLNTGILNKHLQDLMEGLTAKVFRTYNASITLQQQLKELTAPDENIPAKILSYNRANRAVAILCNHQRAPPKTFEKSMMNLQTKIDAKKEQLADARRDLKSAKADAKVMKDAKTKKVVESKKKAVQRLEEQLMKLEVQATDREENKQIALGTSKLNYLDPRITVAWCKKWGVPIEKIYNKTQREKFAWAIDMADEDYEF
Source text: (§6) Compounds were also studied for their ability to stabilize cleavable complexes in the presence of either topoisomerase I or II essentially as described previously (Finlay et al, Eur. J. Cancer 32A, 708-714, 1996). Presence of cleavable complexes was indicated by an increase in the number and intensity of bands observed after electrophoresis and autoradiography. The results are expressed as the effective concentration range where an increase in cleavable complexes was observed relative to controls in the absence of drug.

topoisomerase II = assay: Stabilization of cleavable complexes with topoisomerase II; type: biochemical; settings: range where an increase in cleavable complexes was observed relative to controls
Source text: as §6

[9] = Homo sapiens, read-out: H69/LX4 IC50
[10] = Homo sapiens, COR-L23, 5-6 days incubation

Row | Effective concentration range, Topoisomerase I (topoisomerase I) | Effective concentration range, Topoisomerase II (topoisomerase II) | SMILES | IC50 [1, 9] | Rf (resistance factor) [1] | IC50 [2, 10] | IC50 [3] | Rf (resistance factor) [4] | IC50 ([5]; Homo sapiens, Jurkat) | IC50 ([6]; Homo sapiens, Jurkat) | Rf(JLA/JLC) [6] | IC50 ([7]; Homo sapiens, Jurkat) | IC50 [8] | IC50 [1] | IC50 ([2]; 5-6 days incubation) | IC50 [4] | IC50 [5] | IC50 [6] | Rf(JLD/JLC) [7] | IC50 [7] | IC50 ([1]; read-out: H69/LX4 IC50, H69/LX4 cells (Pgp overexpressing), 5-6 days incubation)
1 |  |  | COc1cccc2c1C(=O)c1c(O)c3c(c(O)c1C2=O)C[C@@](O)(C(=O)CO)C[C@@H]3O[C@H]1C[C@H](N)[C@H](O)[C@H](C)O1 [Doxorubicin, reference compound] | 3700 nM | 135 | 20.3 nM | 327 nM | 16.1 | 7 nM | 25.9 nM | 3.7 | 109 nM |  |  |  |  |  |  |  |  | 
2 | 0.1 to 3.0 µM | 0.1 to 3.0 µM | COc1nccc2c1ccc1nc3cccc(C(=O)N[C@H](C)CN(C)C)c3nc12 [Compound 6, 4-Methoxypyrido[4,3-α]phenazine-11-carboxylic acid (2-dimethylamino-1-(R)-methyl-ethyl)-amide] |  | 1.2 |  |  | 1.3 |  |  | 0.7 |  | 24 nM | 29 nM | 12 nM | 15 nM | 10 nM | 7 nM | 0.9 | 9 nM | 
3 |  |  | CN(C)CCNC(=O)c1cccc2nc3ccc4cnn(C)c4c3nc12 [Compound 13, 1-Methyl-1H-pyrazolo[3,4-α]phenazine-10-carboxylic acid (2-dimethylamino-ethyl)-amide] |  | 0.9 |  |  |  |  |  | 1 |  | 109 nM | 97 nM |  |  | 44 nM | 44 nM | 1.1 | 48 nM | 
4 |  |  | COc1nccc2c1ccc1nc3cccc(C(=O)N[C@H](CO)CN(C)C)c3nc12 [Compound 9, 4-Methoxypyrido[4,3-α]phenazine-11-carboxylic acid (2-dimethylamino-1-(S)-hydroxymethyl-ethyl)-amide] |  | 1.2 |  |  | 1.5 |  |  |  |  | 24 nM | 28 nM | 4 nM | 6 nM |  |  |  |  | 
5 |  |  | CN(C)CCNC(=O)c1cccc2nc3ccc4cnccc4c3nc12 [Compound 2, Pyrido[4,3-α]phenazine-11-carboxylic acid (2-dimethylamino-ethyl)-amide] |  | 0.6 |  |  | 2.5 |  |  | 3 |  | 88 nM | 56 nM | 22 nM | 56 nM | 28 nM | 84 nM | 2.8 | 78 nM | 
6 | 0.1 to 3.0 µM | 0.1 to 3.0 µM | COc1nccc2c1ccc1nc3cccc(C(=O)NCCN(C)C)c3nc12 [Compound 5, 4-Methoxypyrido[4,3-α]phenazine-11-carboxylic acid (2-dimethylamino-ethyl)-amide] |  | 1.3 |  |  | 1.1 |  |  | 0.7 |  | 21 nM | 26 nM | 14 nM | 16 nM | 17 nM | 12 nM | 0.7 | 12 nM | 
7 |  |  | CC[C@@]1(O)C(=O)OCc2c1cc1n(c2=O)Cc2cc3c(CN(C)C)c(O)ccc3nc2-1 [Topotecan, reference compound] | 61.5 nM | 3.9 | 13.6 nM | 20.8 nM | 1.5 |  |  |  |  |  |  |  |  |  |  |  |  | 
8 |  |  | CN(C)CCNC(=O)c1cccc2nc3ccc4ncccc4c3nc12 [Compound 3, Pyrido[3,2-α]phenazine-11-carboxylic acid (2-dimethylamino-ethyl)-amide] |  | 1.1 |  |  | 1.5 |  |  | 2.8 |  | 123 nM | 133 nM | 48 nM | 71 nM | 74 nM | 235 nM | 0.7 | 52 nM | 

Row | SMILES | Effective concentration range, Topoisomerase I (topoisomerase I) | Effective concentration range, Topoisomerase II (topoisomerase II) | IC50 [1, 9] | Rf (resistance factor) [1] | IC50 [2, 10] | IC50 [3] | Rf (resistance factor) [4] | IC50 ([5]; Homo sapiens, Jurkat) | IC50 ([6]; Homo sapiens, Jurkat) | Rf(JLA/JLC) [6] | IC50 ([7]; Homo sapiens, Jurkat) | IC50 [8] | IC50 [1] | IC50 ([2]; 5-6 days incubation) | IC50 [4] | IC50 [5] | IC50 [6] | Rf(JLD/JLC) [7] | IC50 [7] | IC50 ([1]; read-out: H69/LX4 IC50, H69/LX4 cells (Pgp overexpressing), 5-6 days incubation)
9 | CN(C)CCNc1nc2cc(O)ccc2c2c1C(=O)c1ccccc1-2 [TAS-103, reference compound] | 0.3 to 10.0 µM | 0.3 to 10.0 µM |  | 1.1 |  |  | 1.3 |  |  | 55.9 |  | 21 nM |  | 16.3 nM | 22 nM | 5.4 nM | 302 nM | 71.1 | 384 nM | 22 nM
